Experimental data published in patent US11873287B2, “Piperidine-2,6-dione derivatives and ulcerative colitis treating” (TIANJIN HEMAY PHARMACEUTICAL SCI-TECH CO., LTD, priority 2016, dated 2024).
Entries after “also recorded” stand apart in the source; their conditions may differ.

Columns and labels:
[1] = test system: DSS-Induced inflammatory Bowel Disease Models in Mice; test: DSS-induced inflammatory bowel disease model in mice (Biological Example 2, 0.9% DSS); assay type: in vivo, C57BL/6 mice; conditions: 30 mg/Kg i.g. Q.D
Experimental: 66 female C57BL/6 mice were randomly divided into 6 groups: normal control group, model control group, cyclosporine A (25 mg/Kg), 5-ASA (100 mg/Kg), the compound in Example 27 (30 mg/Kg) and the compound in Example 26 (30 mg/Kg). There were 11 mice in each group (see Table 4 below). Besides the normal control group, the remaining groups were induced with 0.9% DSS for 5 days. The day of induction was the first day of the test and then normal drinking water was administered for 4 days. The normal control group was administered with normal drinking water all the time. The model control group, 5-ASA group, the compound in Example 27 group and the compound in Example 26 group were administered with 1% CMC-Na or the corresponding drug every day from the first day of the experiment to the end of the experiment. The cyclosporine A group was administered with cyclosporine A every day from the first day of experiment to the fifth day of the experiment and was administered with the corresponding volume of 1% CMC-Na every day from the sixth day to the end of the experiment due to toxicity. The normal control group was administered with the corresponding volume of 1% CMC-Na every day. The animals were treated and the indexes were tested at the end of the experiment.
The compound in Example 27, the compound in Example 26, 5-ASA or Cyclosporine A: Preparation Method: Suspended with 1% CMC-Na, and prepared when it was needed.
One-Way Anova test was performed with SPSS 17.0. The colony length was analyzed statistically between groups.

[2] = test system: DSS-Induced Inflammatory Bowel Disease Models in Mice; test: DSS-induced inflammatory bowel disease model in mice (Biological Example 1, 1.6% DSS); assay type: in vivo, C57BL/6J mice; conditions: for colon length (Mean ± SD): 1.6% DSS 8 days, end of experiment
Experimental: Experimental animals: C57BL/6J mice, weight of 16-18 g
Piperidine-2,6-dione derivatives, 5-ASA or Cyclosporine A: Preparation Method: Suspended with 1% CMC-Na, and prepared when it was needed.
54 C57BL/6 mice were randomly divided into 6 groups: normal control group, model control group, Example 27 groups consisting of dose of 5 mg/Kg group, dose of 10 mg/Kg group and dose of 20 mg/Kg group, and cyclosporine A-25 mg/Kg group. There were 9 mice in each group (see Table 2 below). Besides the normal control group, the remaining groups were induced with 1.6% DSS for 8 days. Normal drinking water was then administered for 3 days. The normal control group was administered with normal drinking water all the time. The model control group and the compound in Example 27 group were administered with 1% CMC-Na or the corresponding drug every day until the end of the experiment. The cyclosporine A group was administered with the corresponding drug every day from the first day of experiment to the eighth day of the experiment and was administered with the corresponding volume of 1% CMC-Na every day from the ninth day to the end of the experiment due to toxicity. At the end of the experiment, the animals were treated and the indexes such as the colon length were tested.
The homogeneity of data variance test was performed by Spss13.0. Where the variance of data was homogeneous (P>0.05), one-way ANOVA LSD test was performed. Where the variance was inhomogeneous (P≤0.05), the data were treated with extraction of a root and homogeneity of data variance test was further performed. Where the variance of data was homogeneous (P>0.05), one-way ANOVA LSD test was performed. Where the variance was still inhomogeneous (P≤0.05), then Dunnett's multiple comparison (parameter method) was performed.

[3] = test system: DSS-Induced inflammatory Bowel Disease Models in Mice; test: DSS-induced inflammatory bowel disease model in mice (Biological Example 5, 1.3% DSS); assay type: in vivo, C57BL/6 mice; conditions: 30 mg/Kg i.g. Q.D, 1.3% DSS days 0-5

## COCCN1C(=O)CCC(N2C(=O)c3cccc(N)c3C2=O)C1=O (stereo not shown) [Example 27, 4-amino-2-(1-(2-methoxyethyl)-2,6-dioxopiperidin-3-yl)isoindolin-1,3-dione]
[1]; 0.9% DSS
  body weights during the whole experiment compared with model control group: higher than that of the model control group
[1]; 0.9% DSS 5 days, end of experiment
  colon length (Mean ± SD): 6.3 ± 0.5 cm
[2]; 5 mg/Kg i.g. Q.D, 1.6% DSS
  Disease Activity Index (DAI): better than the DAI of model control group
  relief of reduction in colon length in the model: certain relief effects
[2]; 5 mg/Kg i.g. Q.D
  colon length (Mean ± SD): 6.1 ± 0.4 cm
[2]; 10 mg/Kg i.g. Q.D, 1.6% DSS
  Disease Activity Index (DAI): better than the DAI of model control group
[2]; 10 mg/Kg i.g. Q.D
  colon length (Mean ± SD): 6.2 ± 0.4 cm
[2]; 20 mg/Kg i.g. Q.D, 1.6% DSS
  Disease Activity Index (DAI): equivalent to the DAI of the normal control group and cyclosporine A group; also recorded: better than the DAI of model control group
  body weight of the animals during the experiment: continuous increase trend
  relief of reduction in colon length in the model: significant relief effects
[2]; 20 mg/Kg i.g. Q.D
  colon length (Mean ± SD): 6.4±0.4 cm
[3]
  Length (cm, Mean ± SD) of colon: 6.7 ± 0.4 cm
[3]; Mus musculus, po, read-out: Inhibitory Rate of Colonic Reduction
  inhibition in vivo at 30 mg/kg: 81.8%
